≈ marks a conversion by molar mass, not a printed value. Like-named read-outs stand apart in the source and are kept apart here.
What was measured:
[1] = target: T1, LTC4 synthase (Homo sapiens, UniProt Q16873); test: Test 2: LTC4 synthase IC50 procedure, ten concentrations, LTC4 HTRF kit; assay type: biochemical; settings: Table 2; cells marked (Test 2)
T1 sequence (Q16873 1-150): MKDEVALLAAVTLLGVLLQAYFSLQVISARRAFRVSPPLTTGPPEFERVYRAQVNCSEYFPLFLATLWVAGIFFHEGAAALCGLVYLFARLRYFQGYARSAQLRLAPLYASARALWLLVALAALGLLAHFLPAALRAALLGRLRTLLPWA
Procedure: For certain compounds, in order to obtain IC50-values for the compounds, following procedure was used: • 1. A volume (24 μL) of 0.25 μg/mL LTC4 synthase in 75 mM tris (pH ˜8.5), 0.5 mM MgCl2 and 3 mM GSH was preincubated for 10 min with 0.5 μL of compound of interest in DMSO at ten different concentrations, typically in the range 10^−9,5-10^−5M as well as with DMSO only. The buffer is used as background. Runs are performed in duplicates. • 2. The enzymatic reaction is initiated by addition of 0.5 μL LTA4 in diglyme (final assay concentration 8 μM). • 3. The reaction is stopped after 1 min by addition of double the reaction volume of a stop solution (MeOH:H2O:acetic acid 70:30:1). • 4. After 15 fold dilution in PBS, LTC4 formation is detected with LTC4 HTRF kit (Cisbio, cat. No 64LC4PEC) and a fluorescence reader. Typically 10 μL of sample is mixed with 5 μL of each of the HTRF reagents d2 and k and analyzed as described in the kit manual.
The detected product concentration, with background subtracted, is plotted versus compound concentration and IC50 is determined as 50% of maximum inhibition.
(§1) IC50 values for title compounds of the examples are depicted in the tables hereinafter (where, they are the values obtained using Test 1, unless otherwise indicated).

[2] = Thermodynamic aqueous solubility in USP phosphate buffer (Example 25); assay type: physicochemical; settings: USP phosphate buffer pH 7.4, 24 h at 20° C., LC-MS/MS, read-out: Thermodynamic aq solubility
Procedure: The method described here was developed to accurately determine the aqueous solubility of compounds of the invention in buffer solution at a given pH.
Solid material (1 mg) of test compound is added to a glass vial followed by 1 ml of buffer solution (pH 7.4 if another pH not is stated). The solution is left on an orbital shaker for 24 h at 20° C. After incubation, the remaining solid material is separated from solution and the solubility is quantified using LC-MS/MS.
Prepare 0.2 M monobasic potassium phosphate solution by dissolving 27.22 g of KH2PO4 (MW=136.09 g/mol) in water, dilute with water to 1000 mL.
Add 250 mL of the monobasic potassium phosphate solution in a 1000 mL volumetric flask together with 195.5 mL 0.2M NaOH (aq). Add water to 1000 mL. Check pH.
Compounds of the invention/examples to be tested were provided as solid material, weighed into glass vials (2 mL). Each vial contains approximately 1 mg solid compound, two vials/compound are prepared, i.e. duplicate samples of each compound. If a freshly prepared 10 mM DMSO stock solution was available, this solution was used for MS optimization and preparation of standards. If a DMSO-stock solution was not available, a 10 mM solution from solid material 1 mg was prepared.
• Test compounds are employed as solid material. Since duplicate samples are prepared for each compound, each test compound arrives in two vials (1+1 mg). Samples are denoted as sample 1 and 2. • Note amount of substance in each vial. Add USP phosphate buffer pH 7.4 (1 mL) to each sample vial and seal vials using screw caps. Determine whether the solutions are saturated or if compounds are dissolved, note appearance and time. Start incubation; the samples are incubated on an orbital shaker (450 rpm) at 20° C. for 24 hours.
• Take out the 1 mM DMSO-stock solutions of compounds that are to be tested from freezer. If no 1 mM solutions are available, use master solutions with concentration of 10 mM. Allow the solutions to thaw at rt. • Collect two 96-deep well plates, glass inserts, sealing film, and an 8-channel expandable pipette with tall tips. • Abort shaking after 24 hour. • Note if samples are saturated or if compounds have dissolved. • Transfer 720 μL of sample slurry from each sample vial into glass inserts in a 96-deep well plate using an 8-channel expandable pipette. Samples 1 and 2 are transferred to separate plates. Thus, all samples 1 are placed in one plate and all samples 2 in the second plate. • Seal the plates using sealing film. • Centrifuge the plates at 3000 rpm for 15 min at rt. Set acceleration to 9 and brake to 7 (9=fastest acc/brake, 0=slowest acc/brake). • Transfer the supernatants to new glass inserts using an 8-channel pipette, centrifuge samples a second time. • Repeat the procedure above, i.e. centrifuge samples a third time. • After the third centrifugation, transfer supernatant to glass vials, seal vials with screw caps. Control that the solutions are clear and that no particles are present in sample. If solid material is observed, an additional centrifugation step is performed. • Standards are prepared from DMSO-stock solutions (1 or 10 mM). For each compound, transfer […] 1 mM solution to a glass vial, add DMSO (90 μL) to reach a final concentration of 100 μM, seal with screw cap and mix solution quickly on a vortex mixer. Further dilute the 100 μM solution with a 1:1 mixture of acetonitrile and USP phosphate buffer (pH 7.4) to standards with concentration 1000, 500, 100, 25, 2, and 1 nM. Standards are prepared in test tubes.
• Place standards in autosampler. • Try out the dilution of solubility samples so that their response will be within the standard curve. Dilute solubility sample one (or two) with the 1:1 mixture of acetonitrile:buffer. […]

[3] = target: T1, LTC4 synthase; test: Test 1 in vitro assay: LTC4 synthase converts LTA4 to LTC4, HTRF detection; assay type: biochemical; design: made in house; host or cells: Pichia pastoris; settings: Table 2; Test 1 (unless otherwise indicated)
Procedure: In the assay, LTC4 synthase catalyses the reaction where the substrate LTA4 is converted to LTC4. Recombinant human LTC4 synthase is expressed in Piccia pastoralis and the purified enzyme is dissolved in 25 mM tris-buffer pH 7.8 supplemented with 0.1 mM glutathione (GSH) and stored at −80° C. The assay is performed in phosphate buffered saline (PBS) pH 7.4 and 5 mM GSH in 384-well plates.
The following is added chronologically to each well:
1. 48 μL LTC4 synthase in PBS with 5 mM GSH. The total protein concentration in this solution is 0.5 μg/mL. 2. 1 μL inhibitor in DMSO (final concentration 10 μM). 3. Incubation of the plate at room temperature for 10 min. 4. 1 μL LTA4 (final concentration 2.5 μM). 5. Incubation of the plate at room temperature for 5 min. 6. 10 μL of the incubation mixture is analysed using homogenous time resolved fluorescent (HTRF) detection.
as §1

[4] = aqueous buffer, thermodynamic from solid

SMILES | IC50 [1] [nM] | solubility thermodynamic at 24 h [2, 4] [µM] | IC50 [3] [nM] | solubility thermodynamic at 24 h [2] [µM]
CCC(=O)c1ccc(C(=O)c2ccc(N(CC3CC3)c3ccc(Cl)cc3)cn2)cc1C(=O)O [Example 23, 5-(5-((4-Chlorophenyl)(cyclopropylmethyl)amino)picolinoyl)-2-propionylbenzoic acid] | 129 | – | – | –
CC(=O)c1ccc(C(=O)c2ccc(N(CC3CC3)c3ccc(Cl)cc3)cn2)cc1C(=O)O [Example 22, 2-Acetyl-5-(5-((4-chlorophenyl)(cyclopropylmethyl)amino)picolinoyl)benzoic acid] | 307 | 1860 (≈ 835 µg/mL) | – | –
O=C(c1ccc(C(=O)C2CC2)c(C(=O)O)c1)c1ccc(N(CC2CC2)c2ccc(Cl)cc2)cn1 [Example 24, 5-(5-((4-Chlorophenyl)(cyclopropylmethyl)amino)picolinoyl)-2-(cyclopropanecarbonyl)benzoic acid] | 424 | – | – | –
CN(c1ccc(Cl)cc1)c1ccc(C(=O)c2ccc(C(=O)C3(c4ccccc4)CCCCC3)c(C(=O)O)c2)nc1 [Example 9, 5-(5-((4-Chlorophenyl)(methyl)amino)picolinoyl)-2-(1-phenylcyclohexanecarbonyl)benzoic acid] | – | – | 32 | 7 (≈ 3.87 µg/mL)
CN(c1ccc(Cl)cc1)c1ccc(C(=O)c2ccc(C(=O)C3CC4CCC3C4)c(C(=O)O)c2)nc1 (centres unmarked) [Example 15, 2-(Bicyclo[2.2.1]heptane-2-carbonyl)-5-(5-((4-chlorophenyl)(methyl)amino)-picolinoyl)benzoic acid] | – | 1980 (≈ 969 µg/mL) | 94 | –

Reference: patent publication US20130035358A1, “Bis Aromatic Compounds for Use as LTC4 Synthase Inhibitors” (priority 2010, published 2013)
